Reference: patent US20180325840A1, “COMPOSITIONS AND METHODS FOR PREVENTING OR TREATING FATTY PANCREAS OR AMELIORATING PANCREAS DISEASES CAUSED BY FATTY PANCREAS, DIABETES MELLITUS OR OTHER RELATED DISORDERS” (NATIONAL DEFENSE EDUCATION AND RESEARCH FOUNDATION, priority 2015, published 2018)

Tests used:
Assay type in all cases: in vivo
[1] = tested on: B6 mice; test: Serum (plasma) triglyceride (TG) in high-fat diet mice; conditions: for TG (plasma triglyceride): 4 weeks of administration
Method: (§1) The experimental animals employed were B6 mice. The number of test animals in each group of the pre-test was four or more, and the number of test animals in each group of the confirmation test was twelve or more. Male mice having a weight of 18 to 23 g were bred in an animal room with a normal light and dark cycle (7:00 am to 7:00 pm being the bright period, and the rest being the dark period) at a temperature of 23±2° C. and a relative humidity of 55±15%. After the animals were purchased from Lesco Biotech Co., Ltd. (Taipei) and housed at the National Defense Animal Center, the animal experiments were conducted following the Experimental Guide of National Health Research Institute. First, the animals were fed with 3-5 grams of general diet daily, and the water was supplied infinitely. After 1 to 2 weeks of breeding, the healthy state was observed. The body weight was recorded once a week.
(§2) The test animals were randomly grouped into blank control (Blank), high-fat control (HFD), positive control (PS), and test group. The blank control was given a normal diet; the high-fat control was given a high-fat diet; the positive control was given a high-fat diet and tube fed with silymarin (5 mg/kg/day) (Iranian Journal of Pharmaceutical Research (2016), 15 (3): 493-500; Life Sciences 75 (2004) 2167-2180; and Pharm Biol. 2016 Jul. 8:1-6); and the test group was given a high-fat diet and tube fed with the test ingredient individually.
(§3) The blank control was fed with a normal diet arbitrarily for 12 weeks. The high-fat control, the positive control, and the test group were fed with a high-fat diet arbitrarily for 12 weeks. After 8 weeks of feeding, the blank control and the high-fat control were tube fed with deionized water once a day. The positive control was tube fed with silymarin once a day. The test group was tube fed with test compound(s) once a day for 4 weeks.
Before the start of the test and at the 8th and 12th week after the start of the test, blood was collected from the cheek or heart. All the animals were weighed and then sacrificed at the end of the test, and blood was collected from the cheek or heart again. The blood samples of mice were allowed to stand at room temperature for 1 hour to coagulate, and then centrifuged at 15,700×g by a frozen centrifuge at 4° C. for 5 minutes to separate the serum.
1.4.1 Analysis of Serum Triglyceride (TG) and Total Cholesterol (TCHO, TC)
Triglyceride (TG) and total cholesterol (TCHO, TC) in the serum were measured by the automatic blood biochemical analyzer.
(§4) All data were expressed as mean±standard deviation (SD), and the test results were calculated using the ANOVA test method to determine whether there was a statistically significant difference by using the Statistical Package of the Social Science program (Version 13, SPSS Inc.) software package. Subsequently, post hoc test least significant difference method was used to perform multiple comparisons to confirm the significant differences between the groups. The significant difference between the averages of the groups was p<0.05.

[2] = tested on: B6 mice; test: Triglyceride (TG) and total cholesterol (TC) in pancreatic tissue of high-fat diet mice; conditions: 4 weeks of administration
Method: as §1, §2, §3
1.4.6 Analysis of Triglyceride (TG) and Total Cholesterol (TCHO, TC) in Pancreatic Tissue
After the mice were sacrificed, the pancreas was taken out and weighed to compare the ratios of pancreas weight to body weight. The remaining pancreas was frozen and preserved, and the contents of triglyceride and the total cholesterol in the pancreas were measured.
as §4

[3] = tested on: B6 mice; test: Fasting insulin concentration (ELISA) in high-fat diet mice; conditions: for fasting insulin concentration: 4 weeks of administration; for effect on fasting insulin concentration (in words): single test compound
Method: as §1, §2, §3
1.4.4 Analysis of Biochemical Functions of the Pancreas: Analysis of Fasting Insulin Concentration
At the end of the test (at the twelfth week), the mice were fasted to collect the blood following the operation instructions of the mouse ultrasensitive insulin ELISA kit (ALPCO).
as §4

[4] = tested on: B6 mice; test: Intraperitoneal glucose tolerance test (IPGTT) in high-fat diet mice; conditions: for AUC of IPGTT: 2 g/kg glucose IP, blood glucose vs. time, 4 weeks of administration; for effect on sugar tolerance (IPGTT, in words): single test compound
Method: as §1, with “Male mice having a weight of 18 to 23 g were bred in an animal room with a normal light and dark cycle (7:00 am to 7:00 pm being the bright period, and the rest being the dark period) at a temperature of 23±2° C. and a relative humidity of 55±15%.” left out
The test animals were randomly grouped into blank control (Blank), high-fat control (HFD), positive control (PS), and test group.
as §3
1.4.3 Analysis of Biochemical Functions of the Pancreas: Intraperitoneal Glucose Tolerance Test (IPGTT)
The mice were moved into a clean cage and fasted overnight. There was no food or feces at the feeding funnel or the bottom of the clean cage to ensure that the animals may get drinking water at all times. The body weight of the mice was measured, and the volume of the glucose solution required for intraperitoneone (IP) injection was calculated (based on a concentration of 250 mg/mL and 2 g of glucose per kg of mouse weight, the volume (μl) required would be 8× body weight (g)). The mice were moved out and injected intraperitoneally with an appropriate amount of glucose solution, and the injection time was recorded. Blood samples were taken from the tail of the mice at 0, 15, 30, 60, 120 and 150 minutes after the glucose solution was injected. The concentration of blood glucose was measured, and the blood glucose analysis was performed using the Roche's ACCU-CHEK Active blood glucose meter.
as §4

[5] = tested on: B6 mice; test: Homeostasis model assessment of insulin resistance (HOMA-IR) in high-fat diet mice; conditions: for HOMA-IR: 4 weeks of administration; for effect on insulin resistance (in words): single test compound
Method: as §1, §2, §3
1.4.5 Analysis of Biochemical Functions of the Pancreas: Homeostasis Model Assessment of Insulin Resistance (HOMA-IR)
The mice were fasted to collect the blood at the end of the test (at the twelfth week), and the concentrations of blood glucose and insulin were measured and calculated according to the following formula: […]
as §4

[6] = tested on: B6 mice; test: Blood glucose analysis (GLU) in high-fat diet mice; conditions: for GLU: fasted overnight, 4 weeks of administration; for effect on GLU (in words): single test compound
Method: as §1, §2, §3
1.4.2 Analysis of Biochemical Functions of the Pancreas: Blood Glucose Analysis (GLU)
Blood glucose analysis was performed with Roche's ACCU-CHEK Active blood glucose meter. One day before blood collection, mice were fasted overnight. The code card of the blood glucose test paper was inserted into the blood glucose meter, and then the blood glucose test paper was inserted. After the blood drop pattern appeared on the meter, a drop of blood was taken from in vein at the cheek of the mouse with a buccal needle and then dropped into the blood glucose test paper. The blood glucose data shown on the blood glucose meter were recorded.
as §4

Structure (SMILES) | TG (plasma triglyceride) ([1]; 2.5 mg/kg) | pancreatic TC ([2]; 2.5 mg/kg tube fed once a day) | pancreatic TG ([2]; 2.5 mg/kg tube fed once a day) | TG (plasma triglyceride) ([1]; 1.5 mg/kg) | fasting insulin concentration ([3]; 1.5 mg/kg) | effect on fasting insulin concentration (in words) [3] | AUC of IPGTT ([4]; 1.5 mg/kg) | effect on sugar tolerance (IPGTT, in words) [4] | HOMA-IR ([5]; 1.5 mg/kg) | effect on insulin resistance (in words) [5] | GLU ([6]; 1.5 mg/kg) | effect on GLU (in words) [6] | pancreatic TC ([2]; 1.5 mg/kg tube fed once a day) | pancreatic TG ([2]; 1.5 mg/kg tube fed once a day) | fasting insulin concentration ([3]; 2.5 mg/kg) | AUC of IPGTT ([4]; 2.5 mg/kg) | HOMA-IR ([5]; 2.5 mg/kg) | GLU ([6]; 2.5 mg/kg) | further results
COc1ccc([C@@H]2CC(=O)c3c(O)cc(O)cc3O2)cc1O [hesperitin] | 190.1 ± 25.9 mg/dL | 4.4 ± 0.7 mg/g pancreatic tissue | 5.7 ± 1.6 mg/g pancreatic tissue |  |  |  |  |  |  |  |  |  |  |  |  |  |  |  | 
O=C1NS(=O)(=O)c2ccccc21 [saccharin] |  |  |  | 142.6 ± 34.6 mg/dL | 1.3 ± 1.1 ng/mL | significantly reduce | 41.9 ± 6.2 g·h/dL | significantly reduce | 0.3 ± 0.3 | significantly reduce | 92.0 ± 9.6 mg/dL | significantly reduce | 3.0 ± 0.8 mg/g pancreatic tissue | 4.7 ± 2.9 mg/g pancreatic tissue |  |  |  |  | 
CC1CCC(C(C)C)C(O)C1 (stereo not shown) [menthol] |  |  |  | 173.7 ± 56.7 mg/dL | 1.2 ± 0.8 ng/mL | significantly reduce | 45.6 ± 4.8 g·h/dL | significantly reduce | 0.4 ± 0.4 | significantly reduce | 125.7 ± 33.5 mg/dL | significantly reduce | 4.4 ± 0.9 mg/g pancreatic tissue | 18.1 ± 18.3 mg/g pancreatic tissue |  |  |  |  | 
O=C(CCc1ccc(O)cc1)c1c(O)cc(O)cc1O[C@@H]1O[C@H](CO)[C@@H](O)[C@H](O)[C@H]1O [phloridzin] | 148.3 ± 31.4 mg/dL | 3.3 ± 1.1 mg/g pancreatic tissue | 23.3 ± 24.0 mg/g pancreatic tissue |  |  |  |  |  |  |  |  |  |  |  | 1.1 ± 0.3 ng/mL | 51.3 ± 8.9 g·h/dL | 0.6 ± 0.2 | 216.2 ± 26.4 mg/dL | 
O=C1C[C@@H](c2ccc(O)c(O)c2)Oc2cc(O)cc(O)c21 [eriodictyol] | 135.4 ± 43.4 mg/dL | 3.5 ± 0.6 mg/g pancreatic tissue | 4.5 ± 2.8 mg/g pancreatic tissue |  |  | significantly reduce |  | significantly reduce |  | significantly reduce |  |  |  |  | 1.1 ± 0.4 ng/mL | 41.9 ± 5.9 g·h/dL | 0.6 ± 0.2 | 219.0 ± 35.6 mg/dL | TG (plasma triglyceride) ([1]; 5.0 mg/kg): 143.2 ± 15.1 mg/dL; effect on triglyceride in plasma (in words) ([1]; as compared with the high-fat control): significantly reduce
OC[C@@H](O)[C@@H](O)[C@H](O)[C@H](O)CO [mannitol] |  |  |  | 158.9 ± 48.9 mg/dL | 1.1 ± 0.4 ng/mL | significantly reduce | 42.7 ± 1.7 g·h/dL | significantly reduce | 0.3 ± 0.1 | significantly reduce | 112.2 ± 32.0 mg/dL | significantly reduce | 3.7 ± 1.0 mg/g pancreatic tissue | 12.6 ± 7.5 mg/g pancreatic tissue |  |  |  |  | TG (plasma triglyceride) ([1]; 4.5 mg/kg): 180.1 ± 46.7 mg/dL; TG (plasma triglyceride) ([1]; 7.5 mg/kg): 163.9 ± 31.9 mg/dL; pancreatic TC ([2]; 4.5 mg/kg tube fed once a day): 3.3 ± 0.7 mg/g pancreatic tissue; pancreatic TG ([2]; 4.5 mg/kg tube fed once a day): 9.6 ± 5.1 mg/g pancreatic tissue; pancreatic TC ([2]; 7.5 mg/kg tube fed once a day): 3.1 ± 0.3 mg/g pancreatic tissue; pancreatic TG ([2]; 7.5 mg/kg tube fed once a day): 4.7 ± 4.0 mg/g pancreatic tissue
OC[C@H]1O[C@H](O[C@]2(CCl)O[C@H](CCl)[C@@H](O)[C@@H]2O)[C@H](O)[C@@H](O)[C@H]1Cl [sucralose] |  |  |  | 126.9 ± 43.3 mg/dL | 1.3 ± 0.5 ng/mL | significantly reduce | 44.2 ± 3.7 g·h/dL | significantly reduce | 0.4 ± 0.2 | significantly reduce | 128.7 ± 19.3 mg/dL | significantly reduce | 4.2 ± 0.5 mg/g pancreatic tissue | 8.1 ± 5.6 mg/g pancreatic tissue |  |  |  |  | TG (plasma triglyceride) ([1]; 7.5 mg/kg): 186.9 ± 17.2 mg/dL; pancreatic TC ([2]; 7.5 mg/kg tube fed once a day): 3.1 ± 0.4 mg/g pancreatic tissue; pancreatic TG ([2]; 7.5 mg/kg tube fed once a day): 5.2 ± 2.1 mg/g pancreatic tissue
O=c1c(-c2ccc(O)cc2)coc2c([C@@H]3O[C@H](CO)[C@@H](O)[C@H](O)[C@H]3O)c(O)ccc12 [puerarin] | 166.7 ± 22.0 mg/dL | 4.0 ± 1.2 mg/g pancreatic tissue | 17.3 ± 13.4 mg/g pancreatic tissue |  |  | significantly reduce |  | significantly reduce |  | significantly reduce |  |  |  |  | 0.9 ± 0.3 ng/mL | 45.1 ± 11.2 g·h/dL | 0.4 ± 0.2 | 172.3 ± 22.2 mg/dL | 
